Source: patent US9328106B2, “Cyclic ether pyrazol-4-yl-heterocyclyl-carboxamide compounds and methods of use” (Genentech, Inc., priority 2012, dated 2016)

Molecular target: PIM1 (Homo sapiens (Human), UniProt P11309)
Experiment: biochemical
Type: biochemical
Settings: not given

Chain of PIM1 (P11309 whole entry): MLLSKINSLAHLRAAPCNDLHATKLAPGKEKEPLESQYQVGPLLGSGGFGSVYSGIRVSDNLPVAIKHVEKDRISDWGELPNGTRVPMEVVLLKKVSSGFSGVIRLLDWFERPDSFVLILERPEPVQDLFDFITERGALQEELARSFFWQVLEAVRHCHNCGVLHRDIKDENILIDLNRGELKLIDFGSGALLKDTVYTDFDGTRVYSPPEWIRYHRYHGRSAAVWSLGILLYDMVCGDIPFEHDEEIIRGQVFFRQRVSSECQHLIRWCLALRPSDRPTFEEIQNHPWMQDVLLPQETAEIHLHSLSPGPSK

| Structure (SMILES) | Ki [pM] |
| --- | --- |
| [2H]C([2H])([2H])O[C@@H]1CO[C@H](c2c(NC(=O)c3nc(-c4c(F)cccc4F)sc3N)cnn2C)CC[C@H]1N [Example 174, 5-Amino-N-[5-[(2S,5R,6S)-5-amino-6-(trideuteriomethoxy)oxepan-2-yl]-1-methyl-pyrazol-4-yl]-2-(2,6-difluorophenyl)thiazole-4-carboxamide] | 135 |

Same assay, conditions: 20 pM PIM1, 1 μM FAM-peptide, 10 μM ATP, 90 minutes at room temperature; read-out: PIM1 LC3K (KI)

| Structure (SMILES) | Ki [pM] |
| --- | --- |
| C[C@H]1O[C@@H](c2c(NC(=O)c3nc(-c4c(F)cccc4F)sc3N)cnn2C)CC(F)(F)[C@@]1(C)N [Example 184, 5-Amino-N-(5-((2R,5S,6R)-5-amino-4,4-difluoro-5,6-dimethyltetrahydro-2H-pyran-2-yl)-1-methyl-1H-pyrazol-4-yl)-2-(2,6-difluorophenyl)thiazole-4-carboxamide] | 484 |
| Cn1ncc(NC(=O)c2nc(-c3c(F)cccc3F)sc2N)c1C1OCC(CO)CO1 (centres unmarked) [Example 164, 5-Amino-2-(2,6-difluorophenyl)-N-[5-[5-(hydroxymethyl)-1,3-dioxan-2-yl]-1-methyl-pyrazol-4-yl]thiazole-4-carboxamide] | 105 |
| CC(C)n1cc(-c2nc(C(=O)Nc3cnn(C)c3[C@@H]3CC[C@@H](N)[C@@H](F)CO3)c(N)s2)cn1 [Example 256, 5-amino-N-(5-((2S,5R,6R)-5-amino-6-fluorooxepan-2-yl)-1-methyl-1H-pyrazol-4-yl)-2-(1-isopropyl-1H-pyrazol-4-yl)thiazole-4-carboxamide] | 93 |
| Cn1ncc(NC(=O)c2nc(-c3c(F)cccc3F)sc2N)c1C1CCC(N)COC1 (centres unmarked) [Example 144, 5-amino-N-[5-(6-aminooxepan-3-yl)-1-methyl-pyrazol-4-yl]-2-(2,6-difluorophenyl)thiazole-4-carboxamide] | 1450 |
| CO[C@H]1C[C@H](c2c(NC(=O)c3nc(-c4c(F)cccc4F)sc3N)cnn2C)OCC[C@@H]1N [Example 138, 5-amino-N-(5-((2R,4S,5S)-5-amino-4-methoxyoxepan-2-yl)-1-methyl-1H-pyrazol-4-yl)-2-(2,6-difluorophenyl)thiazole-4-carboxamide] | 1870 |
| Cn1ncc(NC(=O)c2ccc(F)c(-c3c(F)cc(OC4CCOCC4)cc3F)n2)c1[C@@H]1CC[C@@H](N)[C@@H](F)CO1 [Example 188, N-(5-((2S,5R,6R)-5-Amino-6-fluorooxepan-2-yl)-1-methyl-1H-pyrazol-4-yl)-6-(2,6-difluoro-4-((tetrahydro-2H-pyran-4-yl)oxy)phenyl)-5-fluoropicolinamide] | 30 |
| Cn1ncc(NC(=O)c2nc(-c3c(F)cccc3F)sc2N)c1C1=CCCCO1 [Example 102, 5-amino-2-(2,6-difluorophenyl)-N-[5-(3,4-dihydro-2H-pyran-6-yl)-1-methyl-pyrazol-4-yl]thiazole-4-carboxamide] | 408 |
| Cn1ncc(NC(=O)c2nc(-c3c(F)cccc3F)sc2N)c1C1CC(F)(F)CC(N)CO1 (centres unmarked) [Example 133, 5-amino-N-[5-(6-amino-4,4-difluoro-oxepan-2-yl)-1-methyl-pyrazol-4-yl]-2-(2,6-difluorophenyl)thiazole-4-carboxamide] | 76 |
| COc1cc(F)c(-c2nc(C(=O)Nc3cnn(C)c3[C@@H]3CC[C@@H](N)[C@H](F)CO3)ccc2F)c(F)c1 [Example 201, N-(5-((2S,5R,6S)-5-amino-6-fluorooxepan-2-yl)-1-methyl-1H-pyrazol-4-yl)-6-(2,6-difluoro-4-methoxyphenyl)-5-fluoropicolinamide] | 19 |
| Cn1ncc(NC(=O)c2nc(-c3c(F)cccc3F)sc2N)c1[C@]12CC[C@H](O1)[C@@H](O)CC2 [Example 106, 5-amino-2-(2,6-difluorophenyl)-N-(5-((1S,4S,5S)-4-hydroxy-8-oxabicyclo[3.2.1]octan-1-yl)-1-methyl-1H-pyrazol-4-yl)thiazole-4-carboxamide] | 32 |
| COC1(c2cc(F)c(-c3nc(C(=O)Nc4cnn(C)c4[C@@H]4CC[C@@H](N)[C@H](F)CO4)ccc3F)c(F)c2)COC1 [Example 202, N-(5-((2S,5R,6S)-5-amino-6-fluorooxepan-2-yl)-1-methyl-1H-pyrazol-4-yl)-6-(2,6-difluoro-4-(3-methoxyoxetan-3-yl)phenyl)-5-fluoropicolinamide] | 56 |
| CO[C@H]1CO[C@H](c2c(NC(=O)c3nc(-c4ccccc4F)sc3N)cnn2C)CC[C@H]1N [Example 183, 5-Amino-N-[5-[(2S,5R,6R)-5-amino-6-methoxy-oxepan-2-yl]-1-methyl-pyrazol-4-yl]-2-(2-fluorophenyl)thiazole-4-carboxamide] | 14.3 |

Further lines, results first:

| Ki [pM] | Structure (SMILES) |
| --- | --- |
| 80 | Cn1ncc(NC(=O)c2ccc(F)c(-c3c(F)cc(C(C)(C)O)cc3F)n2)c1[C@@H]1CC[C@@H](N)[C@@H](F)CO1 [Example 289, N-(5-((2S,5R,6R)-5-amino-6-fluorooxepan-2-yl)-1-methyl-1H-pyrazol-4-yl)-6-(2,6-difluoro-4-(2-hydroxypropan-2-yl)phenyl)-5-fluoropicolinamide] |
| 61 | Cn1ncc(NC(=O)c2nc(-c3c(F)cccc3C(F)(F)F)sc2N)c1[C@@H]1CC[C@@H](N)[C@@H](F)CO1 [Example 278, 5-amino-N-(5-((2S,5R,6R)-5-amino-6-fluorooxepan-2-yl)-1-methyl-1H-pyrazol-4-yl)-2-(2-fluoro-6-(trifluoromethyl)phenyl)thiazole-4-carboxamide] |
| 41 | Cc1cc(F)c(-c2nc(C(=O)Nc3cnn(C)c3[C@@H]3CC[C@@H](N)[C@H](F)CO3)ccc2F)c(F)c1 [Example 392, N-(5-((2S,5R,6S)-5-amino-6-fluorooxepan-2-yl)-1-methyl-1H-pyrazol-4-yl)-6-(2,6-difluoro-4-methylphenyl)-5-fluoropicolinamide] |
| 27 | Cn1ncc(NC(=O)c2csc(-c3c(F)cc(C4(O)CCC4)cc3F)n2)c1[C@@H]1CC[C@@H](N)[C@H](F)CO1 [Example 295, N-(5-((2S,5R,6S)-5-amino-6-fluorooxepan-2-yl)-1-methyl-1H-pyrazol-4-yl)-2-(2,6-difluoro-4-(1-hydroxycyclobutyl)phenyl)thiazole-4-carboxamide] |
| 7 | CO[C@H]1CO[C@H](c2c(NC(=O)c3nc(-c4cc(Cl)ccc4F)sc3N)cnn2C)CC[C@H]1N [Example 281, 5-amino-N-(5-((2S,5R,6R)-5-amino-6-methoxyoxepan-2-yl)-1-methyl-1H-pyrazol-4-yl)-2-(5-chloro-2-fluorophenyl)thiazole-4-carboxamide] |
| 24 | Cc1ccc(F)c(-c2nc(C(=O)Nc3cnn(C)c3[C@@H]3CC[C@@H](N)[C@H](F)CO3)c(N)s2)c1 [Example 292, 5-amino-N-(5-((2S,5R,6S)-5-amino-6-fluorooxepan-2-yl)-1-methyl-1H-pyrazol-4-yl)-2-(2-fluoro-5-methylphenyl)thiazole-4-carboxamide] |
| 16 | Cn1ncc(NC(=O)c2ccc(F)c(-c3c(F)cc(C4(F)CCOCC4)cc3F)n2)c1[C@@H]1CC[C@@H](N)[C@H](F)CO1 [Example 206, N-(5-((2S,5R,6S)-5-amino-6-fluorooxepan-2-yl)-1-methyl-1H-pyrazol-4-yl)-6-(2,6-difluoro-4-(4-fluorotetrahydro-2H-pyran-4-yl)phenyl)-5-fluoropicolinamide] |
| 34 | CCC(=O)c1cc(F)c(-c2nc(C(=O)Nc3cnn(C)c3[C@@H]3CC[C@@H](N)[C@H](F)CO3)ccc2F)c(F)c1 [Example 205, N-(5-((2S,5R,6S)-5-amino-6-fluorooxepan-2-yl)-1-methyl-1H-pyrazol-4-yl)-6-(2,6-difluoro-4-propionylphenyl)-5-fluoropicolinamide] |
| 220 | Cn1ncc(NC(=O)c2csc(-c3c(F)cccc3Cl)n2)c1[C@@H]1CC[C@@H](N)[C@H](F)CO1 [Example 284, N-(5-((2S,5R,6S)-5-amino-6-fluorooxepan-2-yl)-1-methyl-1H-pyrazol-4-yl)-2-(2-chloro-6-fluorophenyl)thiazole-4-carboxamide] |
| 3 | Cc1cc(F)c(-c2nc(C(=O)Nc3cnn(C)c3[C@@H]3CC[C@@H](N)[C@H](F)CO3)cs2)c(F)c1 [Example 312, N-(5-((2S,5R,6S)-5-amino-6-fluorooxepan-2-yl)-1-methyl-1H-pyrazol-4-yl)-2-(2,6-difluoro-4-methylphenyl)thiazole-4-carboxamide] |
| 3120 | Cn1ncc(NC(=O)c2csc(-c3c(F)cncc3Cl)n2)c1[C@@H]1CC[C@@H](N)[C@H](F)CO1 [Example 349, N-(5-((2S,5R,6S)-5-amino-6-fluorooxepan-2-yl)-1-methyl-1H-pyrazol-4-yl)-2-(3-chloro-5-fluoropyridin-4-yl)thiazole-4-carboxamide] |
| 630000 | Cn1ncc(NC(=O)c2csc(-c3cccc(F)c3-c3cccc(F)c3Cl)n2)c1[C@@H]1CC[C@@H](N)[C@@H](F)CO1 [Example 251, N-(5-((2S,5R,6R)-5-amino-6-fluorooxepan-2-yl)-1-methyl-1H-pyrazol-4-yl)-2-(2′-chloro-3′,6-difluoro-[1,1′-biphenyl]-2-yl)thiazole-4-carboxamide] |
| 17 | CC(O)c1cc(F)c(-c2nc(C(=O)Nc3cnn(C)c3[C@@H]3CC[C@@H](N)[C@H](F)CO3)ccc2F)c(F)c1 (stereo partly drawn) [Example 207, N-(5-((2S,5R,6S)-5-amino-6-fluorooxepan-2-yl)-1-methyl-1H-pyrazol-4-yl)-6-(2,6-difluoro-4-(1-hydroxyethyl)phenyl)-5-fluoropicolinamide] |
| 36 | Cn1ncc(NC(=O)c2ccc(F)c(-c3c(F)cc(Cl)cc3F)n2)c1[C@@H]1CC[C@@H](N)[C@H](F)CO1 [Example 375, N-(5-((2S,5R,6S)-5-amino-6-fluorooxepan-2-yl)-1-methyl-1H-pyrazol-4-yl)-6-(4-chloro-2,6-difluorophenyl)-5-fluoropicolinamide] |
| 274 | Cn1ncc(NC(=O)c2csc(-c3cccc(F)c3Cl)n2)c1[C@@H]1CC[C@@H](N)[C@H](F)CO1 [Example 309, N-(5-((2S,5R,6S)-5-amino-6-fluorooxepan-2-yl)-1-methyl-1H-pyrazol-4-yl)-2-(2-chloro-3-fluorophenyl)thiazole-4-carboxamide] |
| 66 | CO[C@H]1CO[C@H](c2c(NC(=O)c3csc(-c4c(F)cccc4F)n3)cnn2C)CC[C@H]1N [Example 221, N-(5-((2S,5R,6R)-5-amino-6-methoxyoxepan-2-yl)-1-methyl-1H-pyrazol-4-yl)-2-(2,6-difluorophenyl)thiazole-4-carboxamide] |
